Test results reported in ChEMBL document CHEMBL3638687, “N-biphenylmethylindole modulators of PPARG” (2015).

Target: T1, Peroxisome proliferator-activated receptor gamma (Homo sapiens, UniProt P37231)
T1 sequence (P37231 whole entry): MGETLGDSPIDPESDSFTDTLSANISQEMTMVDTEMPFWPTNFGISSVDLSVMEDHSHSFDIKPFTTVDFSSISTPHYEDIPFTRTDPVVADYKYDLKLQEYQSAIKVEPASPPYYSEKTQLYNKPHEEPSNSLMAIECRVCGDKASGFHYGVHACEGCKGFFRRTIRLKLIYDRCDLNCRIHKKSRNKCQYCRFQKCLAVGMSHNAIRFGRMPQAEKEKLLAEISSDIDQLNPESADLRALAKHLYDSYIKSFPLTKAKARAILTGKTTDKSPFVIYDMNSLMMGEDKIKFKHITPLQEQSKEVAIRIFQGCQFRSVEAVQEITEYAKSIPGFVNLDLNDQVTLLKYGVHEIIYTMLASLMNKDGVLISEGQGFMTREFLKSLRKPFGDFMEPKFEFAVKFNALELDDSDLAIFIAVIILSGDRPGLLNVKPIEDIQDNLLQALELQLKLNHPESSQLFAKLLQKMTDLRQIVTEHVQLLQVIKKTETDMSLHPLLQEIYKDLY
Experiment: Lanthascreen Competitive Binding Assay: The assay was performed according to manufacturer protocol. A mixture of […], 5 nM Tb-GST-antibody, 5 nM Fluormone Pan-PPAR Green, and serial dilutions of the experimental compound, beginning at 10 μM downwards, was added to wells of black 384-well low-volume plates (Greiner) to a total volume of 18 μL. All dilutions were made in TR-FRET assay buffer C. DMSO at 2% final concentration was used as a no-ligand control. Experiment was performed in triplicate, and incubated for 2 hours in the dark prior to assay read in Perkin Elmer ViewLux ultra HTS microplate reader. FRET signal was measured by excitation at 340 nm and emission at 520 nm for fluorescein and 490 nm for terbium. Fold change over DMSO was calculated using GraphPad Prism Software (La Jolla, Calif.) by calculating 520 nm/490 nm ratio. Graphs were plotted as fold change of FRET signal for compound treatment over DMSO-only control.

SMILES	IC50
CCC(NC(=O)c1ccc2c(c1)c(C)c(C)n2Cc1ccc(-c2ccccc2C#N)cc1)c1ccccc1 (stereo unspecified)	0.54 nM
Cc1c(C)n(Cc2ccc(-c3cccnc3)cc2)c2ccc(C(=O)N[C@@H](C)c3ccc([N+](=O)[O-])cc3)cc12	150 nM
Cc1c(C)n(Cc2ccc(-c3ccccc3C(=O)O)cc2)c2ccc(C(=O)NCc3ccc(F)c(F)c3)cc12	31 nM
CCC(NC(=O)c1ccc2c(c1)c(C)cn2Cc1ccc(-c2ccccc2C(=O)O)cc1)c1ccccc1 (stereo unspecified)	2 nM
Cc1cn(Cc2ccc(-c3ccccc3C(=O)O)cc2)c2ccc(C(=O)N[C@@H](C)c3ccc([N+](=O)[O-])cc3)cc12	126 nM
CC[C@@H](NC(=O)c1ccc2c(c1)c(C)c(C)n2Cc1ccccc1-c1cccc(C(=O)O)c1)c1ccccc1	20 nM
CC[C@H](NC(=O)c1ccc2c(c1)c(C)c(C)n2Cc1ccccc1-c1cccc(C(=O)O)c1)c1ccccc1	80 nM
CC[C@@H](NC(=O)c1ccc2c(c1)c(C)c(C)n2Cc1ccccc1-c1ccc(C(=O)O)cc1)c1ccccc1	80 nM
CC[C@H](NC(=O)c1ccc2c(c1)c(C)c(C)n2Cc1ccccc1-c1ccc(C(=O)O)cc1)c1ccccc1	> 1000 nM
Cc1c(C)n(Cc2ccc(-c3ccccc3C(=O)O)cc2)c2ccc(C(=O)N[C@@H](C)c3cccc(OC(C)C)c3)cc12	19 nM
Cc1c(C)n(Cc2ccc(-c3ccccc3C(=O)O)cc2)c2ccc(C(=O)N[C@@H](C)c3ccc(OC(C)(C)C)cc3)cc12	449 nM
Cc1c(C)n(Cc2ccc(-c3ccccc3C(=O)O)cc2)c2ccc(C(=O)N[C@@H](C)c3ccc(OC(C)C)cc3)cc12	34 nM
Cc1c(C)n(Cc2ccc(-c3ccccc3C(=O)O)cc2)c2ccc(C(=O)N[C@@H](C)C3CCN(C(=O)NCc4ccccc4)CC3)cc12	805 nM
Cc1c(C)n(Cc2ccc(-c3ccccc3C(=O)O)cc2)c2ccc(C(=O)N[C@H]3CCN(C(=O)OCc4ccccc4)C3)cc12	536 nM
Cc1c(C)n(Cc2ccc(-c3ccccc3C(=O)O)cc2)c2ccc(C(=O)N[C@@H](C)c3ccc(Cl)c(C(F)(F)F)c3)cc12	15 nM
CCC(NC(=O)c1ccc2c(c1)cc(C)n2Cc1ccc(-c2ccccc2C(=O)O)cc1)c1ccccc1 (stereo unspecified)	2 nM
